We go through one compound from paper PMC4682813, “The Aminosteroid Derivative RM-133 Shows In Vitro and In Vivo Antitumor Activity in Human Ovarian and Pancreatic Cancers” (PLoS ONE, 2015).

Data set [1] in a line: Plasma concentration of RM-133 in mice at different injection doses. It is filed as in vivo, Balb/c mice. On the procedure:
Eight ♀ Balb/c mice weighing approximately 20 g were separated in 4 groups. Mice in each group received a single s.c. injection of RM-133 (30, 60, 120, or 480 mg/kg). The vehicle used was propylene glycol:EtOH (92:8) and injection volume was 0.1 mL for all concentrations except at 480 mg/kg, where 0.2 mL was used. Blood was collected by cardiac puncture after 12 h, and the plasma concentration of RM-133 determined by LC-MS/MS as above.

A short description of data set [2]: Plasma concentration of RM-133 with different vehicles. It is filed as in vivo, Balb/c mice. As to conditions: female, Balb/c, mouse, sc, 120 mg/kg, single s.c. 120 mg/kg in 0.1 mL.
For the next data set, the system named is CYP2D6. More on the design: method as in PMID 25300820. To be noted: low to moderate risk of drug-drug interactions; cited from earlier work.
A further data set deals with CYP3A4. More on the design: method as in PMID 25300820. To be noted: low to moderate risk of drug-drug interactions; cited from earlier work.
Data set [3] can be described thus: RM-133 plasma and tumor concentration in nude mice after the xenograft experiment (second part), LC-MS/MS. It is filed as in vivo, nu/nu nude mice. As to conditions: for concentration at 12 h: 12 h after single s.c. 60 mg/kg (0.1 mL). On the procedure:
At the end of the xenograft experiment, and in order to obtain preliminary pharmacological data, mice in treated groups were separated into 4 subgroups of 2–3 mice each, injected s.c. with RM-133 (60 mg/kg) and sacrificed after 3, 7, 12, or 24 h. In parallel, mice in the control group were also separated into 4 subgroups, treated with RM-133 (60 mg/kg) as for treated mice, and sacrificed at the same intervals. Blood was collected from mice by cardiac puncture, and the plasma concentration of RM-133 determined by liquid chromatography–tandem mass spectrometry (LC-MS/MS) as previously reported. Tumors of the mice in the treated group were collected at necropsy, pooled, homogenized according to a known procedure and the quantity of RM-133 was determined by LC-MS/MS.

Data set [4] is described as follows: Solubility of RM-133 in injection vehicles. It is filed as physicochemical. To be noted: vehicle #5 sunflower oil:tetrahydrofuran (92:8). The text has this:
Eleven different vehicles were investigated by s.c. injection. These vehicles were formulated as follows: vehicle #1 [propylene glycol:EtOH (92:8)]; vehicle #2 [aqueous 0.4% methylcellulose:EtOH (92:8)]; vehicle #3 [castor oil:EtOH:benzyl alcohol:benzyl benzoate (65:10:10:15)]; vehicle #4 [sunflower oil:EtOH (92:8)]; vehicle #5 [sunflower oil:tetrahydrofuran (92:8)]; vehicle #6 [aqueous 25% β-cyclodextrin:EtOH (92:8)]; vehicle #7 [sesame oil:EtOH:benzyl benzoate:benzyl alcohol:Tween 80 (89.8:7.8:1:1:0.5)]; vehicle #8 [soya oil:EtOH (92:8)]; vehicle #9 [RPMI medium:EtOH (92:8)]; vehicle #10 [saline:dimethyl sulfoxide (DMSO):Tween 80 (89.5:10:0.5)]; and vehicle #11 [saline:benzyl alcohol:carboxymethylcellulose:Tween 80 (98.2:0.9:0.5:0.4)]. The eight vehicles producing the best RM-133 solubility (#1–8) were injected s.c. (0.1 mL) without the test compound (RM-133) for tolerance and behavioral evaluation studies, by observing mice at 0.25, 1, 3, 7, 23, 26, 28, 30, and 96 h post-injection. Finally, RM-133 was injected s.c. once at 120 mg/kg/0.1 mL of the best […] tolerated vehicles (#1,2,4–7) into ♀ Balb/c mice (4 per group), and mice were next monitored with blood collection by cardiac puncture after 3 and 12 h. The plasma concentration of RM-133 was then determined by LC-MS/MS as above.

The conditions of data set [5]: mouse, in vivo.
Description: Ten ♀ Balb/c mice weighing approximately 23 g were separated in 3 groups. […] Mice in groups 1 and 2 received a total of 8 injections over 4 days and were sacrificed on day 8. Mice behavior was monitored during the whole duration of the experiment, and macroscopic observation of organs was performed upon necropsy.
Another data set deals with PANC-1 cells. The data set is described as follows: MTS cell proliferation (viability) assay, PANC-1. It is filed as cell-based. As to conditions: Homo sapiens, 72 h incubation. On the procedure: Human ovarian (OVCAR-3) and pancreatic (PANC-1) cancer cells were purchased from the American Type Culture Collection (ATCC, Rockville, MD) and maintained in exponential growth in a 5% CO2 humidified atmosphere at 37°C. OVCAR-3 cells were routinely grown in RPMI-1640 medium (Sigma, St. Louis, MO) supplemented with 20% FBS, L-glutamine (2 mM), antibiotics (100 IU penicillin/mL and 100 μg streptomycin/mL), insulin (50 ng/mL), and estradiol (1 nM). For OVCAR-3 cell proliferation assays, the medium used was identical, except for the omission of estradiol. […]
The cell proliferation assay was performed with a colorimetric method using 3-(4,5-dimethylthiazol-2-yl)-5-(3-carboxymethoxyphenyl)2-(4-sulfophenyl)-2H-tetrazolium (MTS) (Cell Titer 96 Aqueous, Promega, Madison, WI). […] MTS is converted to water-soluble colored formazan by dehydrogenases present in metabolically active cells, and therefore, the MTS assay allows the immediate determination of absorbance of the soluble formazan directly in the cell medium and thus the measurement of viable cells. The A 490 of the medium was determined using a 96-well microplate reader INFINITE 200 PRO series (TECAN, Männedorf, Switzerland). The IC50 value of RM-133 was determined for each of the two cell lines using the GraphPad Prism 7 software (GraphPad Software, Inc., San Diego, CA).

The mark [6] stands for this setting: vehicle #7 sesame oil (89.7%) EtOH (7.8%) benzyl benzoate (1%) benzyl alcohol (1%) Tween 80 (0.5%).
Where [7] appears, read: vehicle #8 soya oil (92%) EtOH (8%).

Values joined by “and” are separate entries in the source; they are usually repeats but may differ in a detail not shown here. Identical values can stand only once. Like-named read-outs stand apart in the source and are kept apart here.

For `C#C[C@]1(O)CC[C@H]2[C@@H]3CC[C@H]4C[C@H](O)[C@@H](N5CCN(C(=O)[C@@H]6CCCN6C(=O)c6ccc7ccccc7n6)CC5)C[C@]4(C)[C@H]3CC[C@@]21C` [RM-133], in data set [1] (480 mg/kg s.c. in 0.2 mL propylene glycol:EtOH (92:8), motion discomfort, same with vehicle alone), the tolerance entry is “not tolerated”. Moreover, in data set [1] (12 h after single s.c. 30 mg/kg, propylene glycol:EtOH (92:8)), the “plasma concentration as percentage of the injected amount” value came to 17%. Moreover, the concentration at 12 h in data set [1] (female, mouse, plasma, sc, 12 h after single s.c. 30 mg/kg, propylene glycol:EtOH (92:8), Balb/c mice) was determined as 167 ng/mL; in data set [2] (setting [6]), 214 ± 8 ng/mL; in data set [2] (setting [7]), 52 ± 1 ng/mL; in data set [3] (nu/nu nude, mouse, plasma, sc, 60 mg/kg, group A: previously treated daily for 21 days) it was 178 ng/mL; in data set [3] (nu/nu nude, mouse, plasma, sc, 60 mg/kg, group B: not previously exposed to the drug), 91 ng/mL. The concentration at 3 h in data set [2] (setting [6]) came to 302 ± 7 ng/mL; in data set [2] (setting [7]), 137 ± 2 ng/mL. Moreover, in the data set on CYP2D6, the “inhibition of CYP2D6” value is “weak inhibition”. The “inhibition of CYP3A4” value with CYP3A4 was “weak inhibition”. Also, the accumulation in blood entry in data set [3] (21 days-xenograft experiment, 60 mg/kg daily s.c.) was “does not accumulate in blood”. In data set [3] (OVCAR-3 tumors of treated mice collected at necropsy, pooled), the “concentration inside the tumor” value was 1.2 μM and 773 ng/g. This compound also came in with a concentration at 24 h in data set [3] (nu/nu nude, mouse, plasma, sc, 60 mg/kg, single s.c. 60 mg/kg in 0.1 mL propylene glycol:EtOH (92:8), 24 h, nude mice) of 81 ng/mL. Moreover, in data set [3] (single s.c. 60 mg/kg in 0.1 mL propylene glycol:EtOH (92:8), 3 h, nude mice), the “maximum average plasma concentration” value was 460 ng/mL. In addition, in data set [4], the solubility in vehicle entry is on record as “poorly soluble”. In data set [5] (female, Balb/c, 24 h), the “mice with slightly enlarged kidneys at necropsy” value was 75%. Also, the “adverse effect on mice” value in data set [5] (120 mg/kg) and in data set [5] (240 mg/kg) was “no adverse effect” in each case. Besides, the “macroscopic observation of organs at necropsy” value in data set [5] (sc) is listed as “organs did not show any detectable abnormality”. This compound also registered a half-inhibitory concentration (IC50) in the data set with PANC-1 cells of 300 nM.

As a reminder, the IC50 is the concentration that inhibits the measured activity by half. Low readings indicate greater potency in that assay, high ones weaker potency in that assay.
